According to patent US20240066136A1, “MODIFIED PROTEINS AND PROTEIN DEGRADERS” (Cullgen (Shanghai), Inc., priority 2020, published 2024):

Biological target: Human DDB1 (Homo sapiens (Human), UniProt Q16531)
Test: Surface plasmon resonance (SPR) binding assay to immobilized His-DDB1
Conditions: SPR, DDB1 binding moieties with linkers and/or target protein binding moiety; read-out: Binding (Kd)
Experimental: The binding affinities of heterobifunctional compounds to DDB1 were determined by SPR assay. Purified His-DDB1 proteins were immobilized on a CM5 sensor chip, and a dose range of compound solutions were injected in multi-cycle kinetic format. Data were fit to steady state model and gave equivalent dissociation constants (KD).
Protein Expression and Purification. Human DDB1 (UniPro: Q16531) coding sequences were cloned into pFastBacHTB vector and were expressed in High5 cells using Bac-to-Bac baculovirus expression system (Thermo Fisher Scientific). […] DDB1 proteins were obtained from supernatant of cell lysates and purified through sequential application of Ni affinity (Ni-NTA column. Bio-Rad), and size-exclusion (Superdex 200 16/600GL column, GE Healthcare) column chromatography.
Surface plasmon resonance (SPR) binding assay. All SPR studies were performed on a Biacore X100 plus or T200 instrument (GE Healthcare). Immobilization of purified His-DDB1 was carried out at 25° C. using a CM5 sensor chip. The surface was pre-equilibrated in HBS-EP running buffer (10 mM HEPES, pH7.4, 150 mM NaCl, 3 mM EDTA, 0.05% P20), then activated with EDC/NHS. His-DDB1 proteins were immobilized by amine coupling to a density of 11,000-13,000 resonance units (RUs) on flow cell FC2, whereas flow cell FC1 was used as reference. Both DDB1 immobilized and reference surfaces were deactivated with 1M ethanolamine.
All interaction experiments were performed at 25° C. […] Compound Solutions were injected individually in multi-cycle kinetic format without regeneration (flow rate […], association time 120 s, dissociation time 120 s). Sensorgrams from reference surfaces and blank injections were subtracted from the raw data (double-referencing) and the data was solvent-corrected prior to analysis. All data were fit to steady state affinity model using Biacore Evaluation Software and gave equivalent dissociation constants (KD).

Sequence of Human DDB1 (Q16531 whole entry): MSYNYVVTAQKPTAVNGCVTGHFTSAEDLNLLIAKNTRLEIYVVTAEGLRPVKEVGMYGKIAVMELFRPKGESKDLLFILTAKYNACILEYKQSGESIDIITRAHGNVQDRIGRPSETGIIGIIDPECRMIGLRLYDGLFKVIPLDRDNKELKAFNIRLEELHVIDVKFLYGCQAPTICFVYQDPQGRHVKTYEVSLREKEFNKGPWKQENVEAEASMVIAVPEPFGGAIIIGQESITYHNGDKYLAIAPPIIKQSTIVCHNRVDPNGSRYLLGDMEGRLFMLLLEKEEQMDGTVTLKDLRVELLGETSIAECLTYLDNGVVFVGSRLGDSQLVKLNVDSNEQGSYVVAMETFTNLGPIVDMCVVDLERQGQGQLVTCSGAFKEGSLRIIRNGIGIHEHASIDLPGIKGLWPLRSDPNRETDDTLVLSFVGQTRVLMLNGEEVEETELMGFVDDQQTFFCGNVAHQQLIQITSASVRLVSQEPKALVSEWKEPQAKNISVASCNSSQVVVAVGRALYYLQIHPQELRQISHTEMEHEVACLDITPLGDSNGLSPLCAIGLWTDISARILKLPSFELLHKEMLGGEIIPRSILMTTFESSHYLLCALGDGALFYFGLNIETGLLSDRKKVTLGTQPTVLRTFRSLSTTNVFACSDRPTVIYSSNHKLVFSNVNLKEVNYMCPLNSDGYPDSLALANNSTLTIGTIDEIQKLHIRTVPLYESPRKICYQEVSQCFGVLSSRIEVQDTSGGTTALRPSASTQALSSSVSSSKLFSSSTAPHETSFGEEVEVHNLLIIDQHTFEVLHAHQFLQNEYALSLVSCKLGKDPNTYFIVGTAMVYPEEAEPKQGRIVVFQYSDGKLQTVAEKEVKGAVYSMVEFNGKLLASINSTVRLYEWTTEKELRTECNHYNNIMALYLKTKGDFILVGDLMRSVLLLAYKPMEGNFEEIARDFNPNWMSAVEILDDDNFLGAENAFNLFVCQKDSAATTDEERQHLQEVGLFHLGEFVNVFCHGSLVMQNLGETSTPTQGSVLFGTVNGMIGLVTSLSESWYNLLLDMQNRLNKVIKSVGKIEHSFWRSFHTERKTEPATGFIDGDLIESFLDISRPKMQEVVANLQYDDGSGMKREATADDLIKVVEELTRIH

Row | Compound | Kd
1 | CC(=O)Nc1cc(NCCOCCOCCOCCOCCNC(=O)C[C@@H]2N=C(c3ccc(Cl)cc3)c3c(sc(C)c3C)-n3c(C)nnc32)ccc1C(=O)Nc1nc(C)c([N+](=O)[O-])s1 [D-35, (S)-2-Acetamido-4-((1-(4-(4-chlorophenyl)-2,3,9-trimethyl-6H-thieno[3,2-f][1,2,4]triazolo[4,3-a][1,4]diazepin-6-yl)-2-oxo-6,9,12,15-tetraoxa-3-azaheptadecan-17-yl)amino)-N-(4-methyl-5-nitrothiazol-2-yl)benzamide] | 20 to 100 µM
2 | NCCOCCOCCOCCC(=O)Nc1ccccc1C(=O)Nc1ncc([N+](=O)[O-])s1 [BL-3, 2-(3-(2-(2-(2-Aminoethoxy)ethoxy)ethoxy)propanamido)-N-(5-nitrothiazol-2-yl)benzamide] | 20 to 100 µM
3 | CC(=O)Nc1cc(NCCOCCOCCOCCOCCNC(=O)CN2CCN(c3ccc(Nc4ncc5c(C)c(C(C)=O)c(=O)n(C6CCCC6)c5n4)nc3)CC2)ccc1C(=O)Nc1nc(C)c([N+](=O)[O-])s1 [D-47, 2-Acetamido-4-((1-(4-(6-((6-acetyl-8-cyclopentyl-5-methyl-7-oxo-7,8-dihydropyrido[2,3-d]pyrimidin-2-yl)amino)pyridin-3-yl)piperazin-1-yl)-2-oxo-6,9,12,15-tetraoxa-3-azaheptadecan-17-yl)amino)-N-(4-methyl-5-nitrothiazol-2-yl)benzamide] | < 20 µM
4 | CC(=O)Nc1cc(NCCCCN)ccc1C(=O)Nc1ccc([N+](=O)[O-])s1 [BL-20, 2-Acetamido-4-((4-aminobutyl)amino)-N-(5-nitrothiophen-2-yl)benzamide] | 20 to 100 µM
5 | Cc1nc(NC(=O)c2ccccc2NC(=O)CCOCCOCCOCCN)sc1[N+](=O)[O-] [BL-2, 2-(3-(2-(2-(2-Aminoethoxy)ethoxy)ethoxy)propanamido)-N-(4-methyl-5-nitrothiazol-2-yl)benzamide] | 20 to 100 µM

Same assay, conditions: SPR, steady state affinity model, 25° C.; read-out: Binding (DDB1 binder activities, Kd)

Row | Compound | Kd
6 | CCCCNc1ccc(C(=O)Nc2nc(Cl)c([N+](=O)[O-])s2)c(-c2ccccc2)c1 [B-112, 5-(Butylamino)-N-(4-chloro-5-nitrothiazol-2-yl)-[1,1′-biphenyl]-2-carboxamide] | < 20 µM
7 | CCCCNc1ccc(C(=O)Nc2nc(C)c([N+](=O)[O-])s2)c(-c2ccccc2)c1 [B-111, 5-(Butylamino)-N-(4-methyl-5-nitrothiazol-2-yl)-[1,1′-biphenyl]-2-carboxamide] | 20 to 100 µM
8 | CC(=O)Nc1ccccc1C(=O)Nc1ncc(Br)s1 [B-37, 2-Acetamido-N-(5-bromothiazol-2-yl)benzamide] | > 100 µM
9 | CCCNC(=O)c1cccc(C(=O)Nc2ncc([N+](=O)[O-])s2)c1OC(C)=O [B-11, 2-((5-Nitrothiazol-2-yl)carbamoyl)-6-(propylcarbamoyl)phenyl acetate] | 20 to 100 µM
10 | CCCC(=O)Nc1ccc(OC(C)=O)c(C(=O)Nc2ncc([N+](=O)[O-])s2)c1 [B-22, 4-Butyramido-2-((5-nitrothiazol-2-yl)carbamoyl)phenyl acetate] | 20 to 100 µM
11 | Cc1ccc(C)c(C(=O)Nc2ncc([N+](=O)[O-])s2)c1 [B-174, 2,5-Dimethyl-N-(5-nitrothiazol-2-yl)benzamide] | < 20 µM
12 | CC(=O)Oc1ccccc1C(=O)Nc1ncc([N+](=O)[O-])s1 [B-1, 2-((5-nitrothiazol-2-yl)carbamoyl)phenylacetate] | 20 to 100 µM
13 | Cc1cc(C(C)C)ccc1C(=O)Nc1ncc([N+](=O)[O-])s1 [B-164, 4-Isopropyl-2-methyl-N-(5-nitrothiazol-2-yl)benzamide] | > 100 µM
14 | CCCCNc1ccc(C(=O)Nc2ncc([N+](=O)[O-])s2)c(-c2ccccc2)c1 [B-110, 5-(Butylamino)-N-(5-nitrothiazol-2-yl)-[1,1′-biphenyl]-2-carboxamide] | < 20 µM
15 | COC(=O)Nc1ccccc1C(=O)Nc1ncc([N+](=O)[O-])s1 [B-65, methyl (2-((5-nitrothiazol-2-yl)carbamoyl)phenyl)carbamate] | 20 to 100 µM
16 | CCCCNc1cccc(OC(C)=O)c1C(=O)Nc1ncc([N+](=O)[O-])s1 [B-19, 3-(Butylamino)-2-((5-nitrothiazol-2-yl)carbamoyl)phenyl acetate] | 20 to 100 µM
17 | CCCCNc1ccc(C(=O)Nc2ccc([N+](=O)[O-])s2)c(C(C)C)c1 [B-134, 4-(Butylamino)-2-isopropyl-N-(5-nitrothiophen-2-yl)benzamide] | > 100 µM
18 | CN(C)c1ccccc1C(=O)Nc1ncc([N+](=O)[O-])s1 [B-69, 2-(dimethylamino)-N-(5-nitrothiazol-2-yl)benzamide] | > 100 µM
19 | CC(=O)Oc1ccccc1C(=O)Nc1nc(C)c([N+](=O)[O-])s1 [B-9, 2-((4-Methyl-5-nitrothiazol-2-yl)carbamoyl)phenyl acetate] | 20 to 100 µM
20 | CC(=O)Nc1ccccc1C(=O)Nc1nc(S(C)(=O)=O)cs1 [B-48, 2-Acetamido-N-(4-(methylsulfonyl)thiazol-2-yl)benzamide] | > 100 µM
21 | CCCCNc1ccc(C(=O)Nc2ncc([N+](=O)[O-])s2)c(OC(C)=O)c1 [B-17, 5-(Butylamino)-2-((5-nitrothiazol-2-yl)carbamoyl)phenyl acetate] | < 20 µM
22 | O=C(Nc1ncc([N+](=O)[O-])s1)c1ccccc1NC1CC1 [B-71, 2-(cyclopropylamino)-N-(5-nitrothiazol-2-yl)benzamide] | 20 to 100 µM
23 | CC(=O)N(C)c1ccccc1C(=O)Nc1ncc([N+](=O)[O-])s1 [B-64, 2-(N-Methylacetamido)-N-(5-nitrothiazol-2-yl)benzamide] | 20 to 100 µM
24 | CC(C)c1ccccc1C(=O)Nc1ncc([N+](=O)[O-])s1 [B-84, 2-Isopropyl-N-(5-nitrothiazol-2-yl)benzamide] | < 20 µM
25 | CC(=O)Nc1ccccc1C(=O)Nc1ncc(F)s1 [B-36, 2-Acetamido-N-(5-fluorothiazol-2-yl)benzamide] | 20 to 100 µM
26 | COC(=O)Oc1ccccc1C(=O)Nc1ncc([N+](=O)[O-])s1 [B-78, Methyl (2-((5-nitrothiazol-2-yl)carbamoyl)phenyl) carbonate] | 20 to 100 µM
27 | CC(=O)Nc1ccccc1C(=O)Nc1ncc(Cl)s1 [B-35, 2-Acetamido-N-(5-chlorothiazol-2-yl)benzamide] | 20 to 100 µM
28 | CC(=O)Nc1ccccc1C(=O)Nc1ccccn1 [B-123, 2-Acetamido-N-(pyridin-2-yl)benzamide] | < 20 µM
29 | CC(=O)Nc1ccccc1C(=O)Nc1cccnc1 [B-122, 2-Acetamido-N-(pyridin-3-yl)benzamide] | > 100 µM
30 | CCCC(=O)Nc1ccc(C(=O)Nc2ncc([N+](=O)[O-])s2)c(OC(C)=O)c1 [B-21, 5-Butyramido-2-((5-nitrothiazol-2-yl)carbamoyl)phenyl acetate] | > 100 µM
31 | O=C(Nc1ncc([N+](=O)[O-])s1)c1ccccc1Br [B-93, 2-Bromo-N-(5-nitrothiazol-2-yl)benzamide] | 20 to 100 µM
32 | O=C(Nc1ncc([N+](=O)[O-])s1)c1ccccc1NC(=O)C1CC1 [B-62, 2-(Cyclopropanecarboxamido)-N-(5-nitrothiazol-2-yl)benzamide] | 20 to 100 µM
33 | CCCC(=O)Nc1cccc(C(=O)Nc2ncc([N+](=O)[O-])s2)c1OC(=O)CCC [B-24, 2-Butyramido-6-((5-nitrothiazol-2-yl)carbamoyl)phenyl butyrate] | 20 to 100 µM
34 | CC(Nc1nc(-c2ccco2)nc2c1CCNCC2)c1nnc(N)s1 (stereo not shown) [B-138, 5-(1-((2-(furan-2-yl)-6,7,8,9-tetrahydro-5H-pyrimido[4,5-d]azepin-4-yl)amino)ethyl)-1,3,4-thiadiazol-2-amine] | 20 to 100 µM
